No end group written: not given here.
Assays:
GLUT4 = experiment: Measurement of GLUT4myc translocation in L6 myotubes (antibody-coupled colorimetric assay); assay type: cell-based, rat; conditions: L6-GLUT4myc cells
Text: We determined the effect of six synthetic peptides (SP1-6) and four peptide compositions on in vitro GLUT4 translocation using the L6 rat skeletal muscle cell line. A clone of the L6 cell line containing overexpression of GLUT4 tagged with a c-myc epitope (courtesy of Prof. Amira Klip, Hospital for Sick Children, Toronto) was used to investigate the efficacy of each synthetic peptide and peptide composition for effects on GLUT4 translocation in a dose-response design.
L6-GLUT4myc cells were grown in 10% FBS and 2 μg/ml blasticidin. Cells were grown for 48-72 hours before being seeded in 24-well plates at 15,000 cells per well in 2% FBS and allowed to differentiate for 6 to 8 days prior to experimentation.
(§1) L6-GLUT4myc cells were serum-starved for three hours prior to incubation with 100 nM of insulin for 30 mins, or 200, 20, 2.0 and 0.2 μM of SP, and 2, 1, 0.5 and 0.25 mg/ml of peptide composition for 3 hours respectively. A 3 hour incubation period was selected based on previous findings identifying that incubation with branch chain amino acid containing di-peptides for 3 hours increases glucose uptake in L6 myotubes 1. Treatments were staggered in order to determine GLUT4myc translocation at the same time point.
The quantity of myc-tagged GLUT4 at the cell surface was measured by antibody-coupled colorimetric assay. Briefly, after incubation with either insulin for 30 mins or synthetic peptide or peptide composition for 3 hours respectively, L6-GLUT4myc cells were fixed via incubation with 3% paraformaldehyde (PFA). A 0.1 M glycine solution was then added to quench PFA and cells were blocked with 5% goat serum. The myotube monolayer was exposed to anti-myc antibody and then incubated with peroxidase conjugated donkey anti-mouse IgG. 1 mL of o-phenylenediamine dihydrochloride (OPD) reagent was added to each well and this reaction was stopped by adding 250 μl/well of 3 M HCL. To determine GLUT4 translocation to cell surface, a measured aliquot of each condition was determined spectrophotometrically on a plate reader using absorbance at 492 nm. […]

L6-GLUT4myc cells = experiment: Cell viability / cell death seen in the GLUT4 translocation experiment; assay type: cell-based, rat; conditions: synthetic peptide 200 μM, 3 hours
Procedure: as §1

VLDLAIPVNRPGQL [SP2]
stimulatory effect on skeletal muscle GLUT4 translocation (conclusion of the experiment) (GLUT4; dose-response design): displayed a trend for stimulatory effect
GLUT4 translocation (GLUT4; synthetic peptide 0.2-2 μM, 3 hours): trend for SP2 to increase GLUT4 translocation

insulin [reference compound]
average increase in cell surface GLUT4 translocation compared to untreated control (GLUT4; 100 nM insulin, 30 mins): 1.72 fold

DTFYNAAWDPSNR [SP1, DTFYNAAWDPSNR]
cell viability (L6-GLUT4myc cells): poor cell viability
